Laboratory results taken from patent US20230310532A1, “FOOD EXTRACTS, METHODS OF EXTRACTION AND COMPOSITIONS THEREOF” (National University of Singapore, priority 2020, published 2023).
Where two headings read alike, the source gives them in different places.

Molecular target: T1, Pancreatic lipase (from porcine pancreas, type II) (Sus scrofa, UniProt P00591)
T1 construct: Pancreatic lipase (from porcine pancreas, type II, 100-500 units/mg, L3126); purchased Sigma-Aldrich L3126; host or cells: porcine pancreas (tissue-derived)
T1 sequence (P00591 1-450): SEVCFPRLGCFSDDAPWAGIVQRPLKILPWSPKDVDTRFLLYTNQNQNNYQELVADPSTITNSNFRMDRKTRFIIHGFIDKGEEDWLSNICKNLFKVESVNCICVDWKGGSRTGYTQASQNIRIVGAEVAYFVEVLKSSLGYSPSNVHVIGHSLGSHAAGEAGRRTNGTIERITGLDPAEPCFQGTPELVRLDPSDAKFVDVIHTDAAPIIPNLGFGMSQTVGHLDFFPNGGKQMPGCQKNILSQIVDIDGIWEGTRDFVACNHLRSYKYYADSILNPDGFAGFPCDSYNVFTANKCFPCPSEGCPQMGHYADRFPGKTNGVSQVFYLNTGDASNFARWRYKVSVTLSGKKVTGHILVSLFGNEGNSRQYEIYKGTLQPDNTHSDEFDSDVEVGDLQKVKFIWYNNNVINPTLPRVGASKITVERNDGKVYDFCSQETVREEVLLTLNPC
Assay: Pancreatic lipase (PL) inhibitory activity assay using pNPP as substrate
Assay type: biochemical
Description: Pancreatic Lipase Activity Assay Preparation The pancreatic lipase activity assay uses 4-nitrophenyl palmitate (pNPP) as colorimetric lipase substrate. […] Tris-Borate-EDTA buffer (10X, pH 8.3, PB 1040) was purchased from Vivantis Technologies (Selangor, Malaysia).
Buffer solution was prepared by diluting the 10X Tris-Borate-EDTA buffer (890 mM) into 50 mM solution, followed by addition of 0.35% (m/v) sodium deoxycholate, and adjust pH to 8.3. pNPP solution was prepared by adding pNPP into isopropanol to make a 1.5 mg/mL solution. Both solutions were stored in fridge (4° C.) for further tests. PL solution was prepared by suspending PL in 4° C. buffer solution (10 mg/mL), shaking by vortex mixer for 2 min, and centrifuging at 4° C., 6000 rpm for 5 min. The supernatant was divided into several 0.5 mL aliquots in 0.6 mL PP centrifuge tubes and stored in freezer (-18° C.) for further tests.
High-throughput Pancreatic Lipase Activity Assay. For each sample, 20 µL of extract was transferred into a 0.6 mL PP centrifuge tube, dry up at room temperature for 10 min, followed by adding 300 µL buffer solution. The mixture was sonicated thoroughly in water bath sonicator, 150 µL of the sample was transferred onto a 96-well microplate (Corning, clear polystyrene, USA), and incubated in microplate reader (Synergy HT, Biotek Instruments Inc., Winooski, VT, USA) at 37° C. for 15 min. Meanwhile, frozen lipase solution was thawed in room temperature, 10 µL of which was added into the well, and incubate at 37° C. for another 10 min. Finally, the reaction starts by adding 10 µL pNPP solution into each well. The reading wavelength was fixed at 410 nm, 3 s shaking before each reading, and a 1-hour kinetic data was obtained by a reading interval of 20 or 60 seconds. Negative control group (blank) was prepared by adding 20 µL pure solvent instead of extract in the first step.
The tendency of readings in the first 3 minutes were regarded as linear growth, and the slope was calculated by linear regression in Excel (Office 2016, Microsoft, USA). The inhibition activity of each sample is calculated in percentage inhibition by Eq. 1.
Comparator PL Inhibitory Assay (pNPP as substrate). p-Nitrophenyl palmitate (pNPP) is a synthetic chemical probe widely used in PL inhibitory assay. Long chain fatty acid (palmitic acid) and chromatic indicator (p-nitrophenol) are linked by an ester bond, and the molecule works as a substrate of PL. Hydrolyzed by PL in buffer solution, pNPP molecules release the indicators, and a yellowish color is presented. PL activity is indicated by the speed of color gain by time, and the color could be measured by optical density at 410 nm by a spectrometer. […] According to Michaelis-Menten equation, PL activity could be presented by the initial rate of the reaction. […] The inhibition is calculated percentage by Eq.1, and a dose-response curve could be plotted according to PL inhibition under different inhibitor concentrations (FIG. 1B). Fitting with proper model, IC50 could be calculated by plugging 50% into the fitted formula.

[1] = lipase inhibition, resin glycosides in fraction F5.1.23.34 of sweet potato tuber
[2] = lipase inhibition, resin glycosides in fraction F5.1.23.34 of sweet potato tuber, read-out: IC50
[3] = isolated resin glycosides of sweet potato tuber, read-out: PL inhibition IC50
[4] = lipase inhibition, resin glycosides in fraction F5.1.23.34 of sweet potato tuber, read-out: IC50 (µg/mL) (converted)

Compound | IC50 (µg/mL) [1] [µg/mL] | IC50 [2] [µM] | IC50 [3] [µM] | IC50 [4] [µM]
Batataoside II | 7.6 | 6 | – | –
CCCCCC1CCCCCCCCCC(=O)OC2C(O)C(OC(C)C2OC2OC(C)C(OC3OC(C)C(OC(=O)C(C)CC)C(OC(=O)C=Cc4ccccc4)C3O)C(OC3OC(C)C(O)C(O)C3O)C2OC(=O)C(C)CC)OC2C(O1)OC(C)C(O)C2O (stereo not shown) [Pescaprein XXVII] | – | 5.6 | 4.9 to 6.7 | 5.61
Batataoside I | 8.5 | 6.7 | – | –
CCCCC[C@H]1CCCCCCCCCC(=O)O[C@H]2[C@H](O[C@H]3[C@H](O1)O[C@H](C)[C@H](O)[C@@H]3O)O[C@@H](C)[C@H](O[C@@H]1O[C@@H](C)[C@H](O[C@@H]3O[C@@H](C)[C@H](OC(=O)[C@@H](C)CC)[C@@H](OC(=O)/C=C/c4ccccc4)[C@H]3O)[C@@H](O[C@@H]3O[C@@H](C)[C@H](O)[C@@H](O)[C@H]3O)[C@H]1OC(=O)[C@@H](C)CC)[C@H]2O [Batatoside III] | – | 4.9 | 4.9 to 6.7 | 4.91
